# Results: patent publication US20210069108A1, “METHODS FOR PREVENTION AND TREATMENT OF PRESSURE ULCERS CAUSED BY ISCHEMIA USING CONTACT VASODILATORS” (priority 2018, published 2021)
# Tested on: pressure ulcer
# Experiment: topical composition applied to one pressure ulcer of a patient, another pressure ulcer left untreated
# Format: in vivo
# Conditions: patient diagnosed with pressure ulcers
# Description: A patient is diagnosed with pressure ulcers. A topical composition comprising the calcium channel blocker nifedipine is applied to one pressure ulcer while another pressure ulcer is left untreated. […] A patient is diagnosed with pressure ulcers. A topical composition comprising the ACE inhibitor enalapril is applied to one pressure ulcer while another pressure ulcer is left untreated. […] A patient is diagnosed with pressure ulcers. A topical composition comprising the angiotensin receptor blocker losartan is applied to one pressure ulcer while another pressure ulcer is left untreated.
compound,measurement,value
CCOC(=O)[C@H](CCc1ccccc1)N[C@@H](C)C(=O)N1CCC[C@H]1C(=O)O [enalapril],healing of the treated pressure ulcer compared with the untreated pressure ulcer,heal faster than the untreated pressure ulcer
CCCCc1nc(Cl)c(CO)n1Cc1ccc(-c2ccccc2-c2nn[nH]n2)cc1 [losartan],healing of the treated pressure ulcer compared with the untreated pressure ulcer,heal faster than the untreated pressure ulcer
